Calls of active or inactive are those of the source.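 How the source made its calls: active means inhibition of 30% or more at any tested concentration; inactive means the rest.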

The target of the first assay is Cytosol aminopeptidase (Homo sapiens) (UniProt P28838). In words: human M17LAP inhibitors, dose response, counter-screen for PfM17LAP inhibitor project, biochemical, QFRET fluorogenic substrate (AID 602214). The conditions noted are these: purified recombinant human M17LAP, H-Leu-NHMec fluorescence.
Cytosol aminopeptidase (Homo sapiens), sequence (P28838 whole entry, looked up): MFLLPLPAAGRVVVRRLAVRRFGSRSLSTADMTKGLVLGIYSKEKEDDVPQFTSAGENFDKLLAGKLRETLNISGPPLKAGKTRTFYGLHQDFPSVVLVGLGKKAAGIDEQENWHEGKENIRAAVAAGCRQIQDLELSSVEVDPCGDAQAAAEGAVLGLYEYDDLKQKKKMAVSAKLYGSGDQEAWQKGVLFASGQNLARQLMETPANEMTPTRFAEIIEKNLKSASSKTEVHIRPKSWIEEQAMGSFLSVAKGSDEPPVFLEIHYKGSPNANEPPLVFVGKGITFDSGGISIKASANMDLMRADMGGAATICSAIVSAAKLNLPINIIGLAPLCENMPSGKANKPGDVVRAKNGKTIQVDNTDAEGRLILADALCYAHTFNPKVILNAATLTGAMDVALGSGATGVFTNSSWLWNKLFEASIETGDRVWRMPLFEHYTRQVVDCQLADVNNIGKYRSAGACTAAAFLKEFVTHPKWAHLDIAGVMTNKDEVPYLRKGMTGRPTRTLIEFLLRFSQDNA
Consider `O=C(Cc1ccc2ccccc2c1)NO`, for which the IC50 was 0.29 µM.

For the molecule `CCCCOc1ccc(CCC(=O)NO)cc1`, the IC50 was 16.2 µM. Turning to `CCOc1ccc(CC(=O)NO)cc1`, the IC50 is 1.11 µM. For the molecule `COc1ccc(OCCC(=O)NO)cc1`, the IC50 is 44.2 µM.

For `CCCCc1ccc(CC(=O)NO)cc1`, the IC50 was 0.35 µM.

Take `CCCCOc1ccc(CC(=O)NO)cc1`: the IC50 was 0.31 µM. Same read-out and setting: with `Cc1ccc(CC(=O)NO)cc1` the figure was 1.82 µM; with `COc1ccc(CCCC(=O)NO)cc1`, 4.58 µM. Consider `O=C(Cc1ccc2c(c1)CCCC2)NO`, for which the IC50 is 0.28 µM. Same read-out and setting: with `O=C(Cc1ccc(Oc2ccccc2)cc1)NO` the figure was 0.52 µM. The same measure, in the same setting: the result for `O=C(Cc1ccc(OCc2ccccc2)cc1)NO` reads 1.18 µM; that for `CCCCCCCCCC(=O)NO`, 8.23 µM. On the same count and under the same terms, with `CCCCOc1ccc(C(=O)NO)cc1` the figure was 8.67 µM; with `COc1ccc(CC(=O)NO)cc1`, 1.64 µM; with `COC(=O)c1c(NC(=O)C2CC=CCC2C(=O)O)sc(C)c1-c1ccc(C)cc1` (centres undefined), 85.7 µM. As for `CC(C)COc1ccc(CC(=O)NO)cc1`, the IC50 is 0.21 µM.

Regarding `O=C(NO)c1cccc2ccccc12`, the IC50 was 31.9 µM. Same read-out and setting: the result for `O=C(Cc1cccc2ccccc12)NO` reads 0.99 µM.

Staying with this assay, now noted: purified recombinant human M17LAP, H-Leu-NHMec fluorescence; at 25 µM (top of the series).
As to `CCCCOc1ccc(CNc2c(N(C)O)c(=O)c2=O)cc1`, the inhibition result was “inactive”.

The same assay, now with this note: purified recombinant human M17LAP, H-Leu-NHMec fluorescence; at 50 µM (top of the series).
`CCCCOc1ccc(CC(=O)N(C)O)cc1`: the inhibition result was “inactive”.

`O=C(CSc1nccc(=O)[nH]1)Nc1ccc(Oc2ccccc2)cc1`: the inhibition result is “inactive”.

Regarding `COC(=O)c1ccccc1NC(=O)c1cc2cc3ccc(C)cc3nc2s1`, the inhibition result was “inactive”. Same read-out and setting: the result for `O=C1OCCC1Sc1nnc(NC2CCCCC2)s1` (centres undefined) reads “inactive”; that for `COC(=O)c1ccccc1NC(=O)c1ccc2c(Cl)c3c(nc2c1)CCC3`, “inactive”.

The assay is the same for the next values; noted with them: purified recombinant human M17LAP, H-Leu-NHMec fluorescence; at 100 µM (top of the series).
Turning to `CC(C)(C(=O)NO)c1ccccc1`, the inhibition result is “inactive”. Regarding `CC1=C(C)CC(C(=O)Nc2ccc(Oc3ccc(Cl)cc3)cc2)C(C(=O)O)C1` (centres undefined), the inhibition entry is “inactive”.

For `NC(N)=NCCC[C@H](N)C(=O)NO`, the inhibition entry is “inactive”.

On to `CC1=C(C)CC(C(=O)Nc2nc(-c3cc(C)ccc3C)c(C)s2)C(C(=O)O)C1` (centres undefined), for which the inhibition entry was “inactive”. Still for that read-out and setting: with `O=C(CSc1nc(O)cc(=O)[nH]1)Nc1ccccc1` the entry was “inactive”; with `CCCCOc1ccc(CC(=O)O)cc1`, “inactive”. As to `COC(=O)Cc1ccc(OCC(C)C)cc1`, the inhibition result is “inactive”. With `O=C(CSc1nccc(=O)[nH]1)Nc1ccc(N2CCOCC2)cc1`, the inhibition entry is “inactive”. The same measure, in the same setting: the result for `O=C(CSc1ccccc1)Nc1cccc2c1C(=O)NC2=O` reads “inactive”; that for `O=C(O)c1ccccc1C(=O)Nc1nc2c(s1)CCCC2`, “inactive”.

In the case of `COC(=O)c1c(NC(=O)C2CCCCC2C(=O)O)sc2c1CCC(c1ccccc1)C2` (centres undefined), the inhibition entry is “inactive”.

For the molecule `CCC(C)Oc1ccc(CC(=O)OC)cc1` (centres undefined), the inhibition entry is “inactive”. Turning to `N[C@@H](Cc1c[nH]c2ccccc12)C(=O)NO`, the inhibition result was “inactive”. In the case of `Cc1ccc(NC(=O)CSc2nc(O)cc(=O)n2Cc2ccccc2)cc1`, the inhibition entry is “inactive”. For `COC(=O)c1cc(OC)c(OC)cc1NC(=O)c1sc2nc(C)ccc2c1N`, the inhibition entry is “inactive”. As for `Cc1cc(SCC(=O)Nc2ccccc2C(=O)O)nc2ccccc12`, the inhibition entry was “inactive”. Turning to `CC(C)C[C@H](N)C(=O)NO`, the inhibition result is “inactive”. In the case of `CCC(C)(C)C1CCc2c(sc(NC(=O)C3CC(C)=C(C)CC3C(=O)O)c2C(=O)OC)C1` (centres undefined), the inhibition result is “inactive”. On the same count and under the same terms, the result for `CCn1c2ccccc2c2cc(NC(=O)CSc3nc(C)cc(=O)[nH]3)ccc21` reads “inactive”; that for `COC(=O)c1c(NC(=O)c2ccccc2C(=O)O)sc2c1CCCC2`, “inactive”; that for `O=C(Nc1ccc(Cl)cc1)Nc1ccccc1C(=O)O`, “inactive”. The same measure, in the same setting: the result for `COC(=O)Cc1ccc(OCCN(C)C)cc1` reads “inactive”; that for `COc1cc(NC(=O)CSc2ccccc2)c(C(=O)O)cc1OC`, “inactive”; that for `CCCOc1ccc(CC(=O)OC)cc1`, “inactive”. On the same count and under the same terms, the result for `COc1ccc(-c2nnc(NC(=O)C3CC(C)=C(C)CC3C(=O)O)s2)cc1` (centres undefined) reads “inactive”; that for `CN(O)C(=O)Cc1ccc(OCc2ccccc2)cc1`, “inactive”; that for `COc1cc(NC(=O)c2ccc(-c3ccccc3)cc2)c(C(=O)O)cc1OC`, “inactive”. Consider `Cc1cc(=O)[nH]c(SCC(=O)Nc2ccccc2)n1`, for which the inhibition entry was “inactive”. On the same count and under the same terms, the result for `CCCCOc1ccc(CNc2c(N(O)Cc3ccccc3)c(=O)c2=O)cc1` reads “inactive”; that for `CC1CCc2sc(C(=O)Nc3cccc4c3C(=O)NC4)cc2C1` (centres undefined), “inactive”.

(Values after PubChem BioAssay AID602214 (Southern Research Specialized Biocontainment Screening …, 2012).)
